Measurements taken from US11110185B2, “Combination formulation” (GE Healthcare AS, priority 2015, dated 2021).

Legend:
[1] = Contrast-enhanced MR imaging of dynamic vascular and delayed phases in minipigs; assay type: in vivo, Gottingen minipigs; conditions: for Peak Aorta SI: aorta ROI, 3.0 T, IV single injection 0.3 ml/kg; for percentage relative vascular intensity (1-RVI %), AP: arterial phase, 30 secs; for RVI AUC (total vascular enhancement: aorta, IVC, PV): composite RVI curves normalised to liver parenchyma, trapezoidal rule; for percentage relative vascular intensity (1-RVI %), LVP: late venous phase, 120 secs; for percentage relative vascular intensity (1-RVI %), PVP: portal venous phase, 60 secs
Procedure: The study was approved by the Universitair Ziekenhuis Brussel (UZB), Belgium local ethics committee for animal experiments on the 9 Mar. 2016 (EC number: 16-272-4). All animal experiments were carried out in accordance with the applicable laws and regulations. Naïve minipigs (Gottingen minipigs, Ellegaard Gottingen Minipigs, Denmark) were chosen as the model as its cardiac function and vascular dynamics closely resembles that of the human allowing optimal spatial and temporal resolution for the evaluation of the dynamic vascular phase.
The study consisted of five dosing groups (2 groups of contrast agent administered as single stand-alone dose; 3 groups administered with the Combo formulations). Each animal was tested once within each dosing group with a washout period of one week.
For each MRI examination, anaesthesia was induced with a bolus of the Zoletil mixture (0.06 ml/kg, intramuscular) and maintained by an infusion of Nesdonal (0.6 ml/kg/h, intravenously (IV) administered). Test items were administered IV as a single injection via PAC unit (Port-a-cath, Power PAC II, 1.9 mm, Smiths Medical, Belgium). The test items were administered at a volume of 0.3 ml/kg using a power injector (Medrad Spectris Solaris) at a rate of 2 ml/s. Immediately following administration, 20 ml saline was passed through the tubing to flush any remaining test item.
All MRI acquisitions were performed on a clinical 3.0 T GE MR750w scanner (GE Discovery, GE Healthcare, Waukesha, Wis.) using an abdominal phase-array surface coil positioned on the abdomen of the pigs. A multiphase dynamic 3D T1w LAVA (Liver Acquisition with Volume Acquisition) was performed using bolus timing to capture the early arterial to the late venous vascular phase using the following imaging parameters: TR/TE=2.9/1.3 ms, FA=12°, FoV=42×40 cm, matrix 220×160, slice thickness=3 mm, number of slices=40, NEX=1. The protocol also included a free-breathing navigated LAVA acquired at both pre and post administration of test item (during the delayed enhancement phase).
Quantitative analysis on the time-resolved dynamic series was completed using the Advantage Windows VolumeShare 7 Workstation (GE Healthcare). […] Visual verification of all ROI locations was performed by an abdominal radiologist. For each test item, absolute signal intensity (SI) curves were analysed for each of the ROIs and expressed as peak value with inter-quartile ranges of 25% and 75%.
To calculate the vascular enhancement, relative vascular intensity (RVI) was normalised to liver parenchyma for the aorta, IVC and PV using the equation below.
Relative Vascular Intensity (RVI)=(SI(Vessel)−SI(Liver))/(SI(Liver))
Using the RVI curves, composite vascular intensity curves were derived encompassing all vascular signal from the aorta, IVC and the PV. The total vascular enhancement associated with each test item was determined by the trapezoidal rule of area under the curve (AUC), where positive signal above y=0 was included. From this, time-relative fractions at the arterial phase (AP: 30 secs), portal venous phase (PVP: 60 secs) and late venous phase (LVP: 120 secs) were expressed as a proportion of the total vascular AUC (% RVI) and were calculated as 1-% RVI to give the percentage reduction though each phase.
For the delayed phase, a qualitative assessment was performed by an experienced radiologist for the presence or lack of enhancement pre and post-administration of test item.

[2] = In vitro relaxivity measurements (NMR relaxometer, 60 MHz, 37° C.); assay type: physicochemical
Procedure: In vitro relaxivity measurements were used to evaluate the efficacy (relaxivity) of the Combo formulations compared to the standalone commercial contrast agents. Longitudinal relaxation times were measured in 150 mM saline solution at 37° C. using a Minispec Mq benchtop NMR relaxometer (Bruker Instruments, Rheinstetten, Germany) operating at 60 MHz. The longitudinal relaxivity of the complexes were calculated by plotting the reciprocal of the T1 relaxation time versus the gadolinium concentration as determined via ICP-MS for each individual agent and the Combo formulations tested.

[3] = normal liver, after intravenous injection; cited from earlier work

| Substance | peak arterial enhancement, SI (in words) ([1]; SI curves, aorta) | Peak Aorta SI [1] | percentage relative vascular intensity (1-RVI %), AP [1] [%] | RVI AUC (total vascular enhancement: aorta, IVC, PV) [1] [AU] | percentage relative vascular intensity (1-RVI %), LVP [1] [%] | percentage relative vascular intensity (1-RVI %), PVP [1] [%] | Relaxivity in aqueous solution (r1) [2] [mM⁻¹ s⁻¹] | vascular enhancement in LVP (in words) ([1]; 120 secs post injection) | hepatobiliary excretion [3] |
| --- | --- | --- | --- | --- | --- | --- | --- | --- | --- |
| 2-[4,7-his(carboxylatomethyl)-1 0-(carboxymethyl)-1,4, 7,10-tetrazacyclododec-1-yl]acetate; gadolinium(3+) [Gadoterate] | highest SI | 2402 | 97.5 | 63.2 | 8.4 | 42.8 | 2.9 | – | – |
| disodium; 2-[[2-[bis(carboxylatomethyl)amino]-3-(4-ethoxyphenyl)propyl]-[2-bis(carboxylatomethyl)amino]ethyl]amino]acetate, gadolinium(3+) [Gadoxetate] | – | 2096 | 82.4 | 34.2 | 0.0 | 19.0 | 4.7 | no vascular enhancement evident | up to 50% |
